According to article PMC7817177 (eLife, 2021):

Columns and labels:
ARL3 = biological target: T1, ARL3 (Homo sapiens, UniProt P36405); test: fluorescence polarisation, competition with mantGDP; type: binding; conditions: 2 uM mantGDP, 2 uM ARL3-GDP, 2 uM ARL13B 18-278 (GEF) present, pH 7.5, 5 mM MgCl2, room temperature, competitive
T1 construct: full-length, C-terminal His6 tag (untagged thrombin-cut version in some assays), E. coli BL21-CodonPlus(DE3)-RIL

ARL3^ΔN (ARL3^17-182) = biological target: T2, ARL3^ΔN (ARL3^17-182) (Homo sapiens, UniProt P36405); test: fluorescence polarisation nucleotide exchange, displacement of mantGDP; type: binding; conditions: 150 uM GppNHp with ARL13B 18-278 (GEF); competitive
T2 construct: residues 17-182 (N-terminal helix removed), C-terminal His6 tag, E. coli
T2 sequence (P36405 17-182, stated change not applied): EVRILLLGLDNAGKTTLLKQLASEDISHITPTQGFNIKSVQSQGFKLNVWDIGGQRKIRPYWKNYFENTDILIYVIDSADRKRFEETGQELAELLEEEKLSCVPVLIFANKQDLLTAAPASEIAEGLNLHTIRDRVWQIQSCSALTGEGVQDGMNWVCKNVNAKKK

[1] = biological target: ADP-ribosylation factor-like 3 (ARL3), full length (human, UniProt P36405 1-182); test: cell-based or functional assay
Sequence of ADP-ribosylation factor-like 3 (ARL3), full length (P36405 whole entry): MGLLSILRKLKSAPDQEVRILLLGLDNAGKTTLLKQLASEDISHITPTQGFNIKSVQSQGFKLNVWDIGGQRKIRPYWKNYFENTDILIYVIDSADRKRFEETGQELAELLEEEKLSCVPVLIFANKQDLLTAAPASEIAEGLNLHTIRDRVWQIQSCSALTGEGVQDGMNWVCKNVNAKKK

T1 sequence (P36405 2-182): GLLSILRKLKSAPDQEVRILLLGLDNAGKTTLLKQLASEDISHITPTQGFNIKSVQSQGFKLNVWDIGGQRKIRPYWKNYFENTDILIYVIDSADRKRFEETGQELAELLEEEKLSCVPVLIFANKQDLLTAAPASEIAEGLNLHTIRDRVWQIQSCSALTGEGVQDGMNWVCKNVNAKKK

## Nc1nc2c(ncn2[C@@H]2O[C@H](COP(=O)(O)OP(=O)(O)NP(=O)(O)O)[C@@H](O)[C@H]2O)c(=O)[nH]1 [GppNHp]
ARL3; 40 uM unlabelled GppNHp
  % mantGDP binding relative to no unlabelled nucleotide: 83.7%
ARL3^ΔN (ARL3^17-182)
  fluorescence polarisation nucleotide exchange, displacement of mantGDP: ARL3^ΔN undergoes significant nucleotide exchange upon the addition of ARL13B

## Nc1nc2c(ncn2[C@@H]2O[C@H](COP(=O)(O)OP(=O)(O)O)[C@@H](O)[C@H]2O)c(=O)[nH]1 [GDP]
ARL3; 40 uM unlabelled GDP
  % mantGDP binding relative to no unlabelled nucleotide: excess unlabelled GDP was able to compete with mantGDP

## Nc1nc2c(ncn2[C@@H]2O[C@H](COP(=O)(O)OP(=O)(O)OP(=O)(O)O)[C@@H](O)[C@H]2O)c(=O)[nH]1 [GTP]
ARL3; 40 uM unlabelled GTP
  % mantGDP binding relative to no unlabelled nucleotide: 53%

B1: GST-tagged binder of ARL2 (BART), full length (natural protein, human, UniProt Q9Y2Y0 1-163, looked up)
chain: MDALEGESFALSFSSASDAEFDAVVGYLEDIIMDDEFQLLQRNFMDKYYLEFEDTEENKLIYTPIFNEYISLVEKYIEEQLLQRIPEFNMAAFTTTLQHHKDEVAGDIFDMLLTFTDFLAFKEMFLDYRAEKEGRGLDLSSGLVVTSLCKSSSLPASQNNLRH
[1]
  acceleration by 20 µM BART of the exchange of 2 µM ARL3mantGDP with 150 µM unlabelled GDP and 10 µM ARL13B^18-278 (fluorescence polarisation): ~70 fold
